Counter-ions that a name gives are not always drawn.
Tests used:
[1] = target: Syk (356-635 amino acids) catalytic domain (Homo sapiens (Human), UniProt P43405); test: Inhibition of enzymatic Syk kinase activity (radiometric); assay type: biochemical; settings: read-out: IC50 Syk
Text: The objective of this assay was to examine by radiometric method the ability of compounds to inhibit Syk kinase enzyme. Syk is capable of phosphorylating substrates such as VAV, LAT, SLP-76, which in turn activate MAPK, PLCγ signaling pathways. […] This in vitro assay tests the ability of syk to phosphorylate a substrate peptide in the presence of ATP. By using a radio-labeled form of ATP, it is possible to measure the amount of phosphorylation of the substrate. The enzyme transfers a radio-labeled phosphate group from γ32 P labeled ATP to pG4T. Briefly the enzyme was incubated with substrate, radio-labeled & cold ATP and substrate in buffer with or without compounds. At the end of the reaction, the reaction mixture was transferred on to a Multiscreen filter plate and unreacted γ^32P ATP was washed off. The filter plate was dried and the radioactivity was measured on a scintillation counter to estimate the incorporated radioactivity on the substrate. The percent inhibition of activity of the enzyme was calculated by comparing counts in the presence and absence of compounds. […] 2.5 μL of 10% DMSO or compound in 10% DMSO was added to the wells in a 96 well V-bottom plate. Optimized concentration of in-house Syk enzyme (different batches of Syk (356-635) kinase domain) were used at optimized concentrations) ranging from 0.035 ng to 7.5 ng/reaction diluted in assay buffer was added to a total volume of 12.5 μL). Compound and protein were incubated for 30 minutes at room temperature on a plate shaker. Ten μL of a substrate mix containing 100 μM ATP (0.25 μL), γ-P^32-ATP (0.1 μL; 10 μCi/μL), pG4T (0.25 μL; 10 mg/mL) and 1× assay buffer (9.4 μL) was added to all the wells. Samples were incubated at 30° C. for 10 minutes after mixing. The reaction was stopped by the addition of 8N HCl (13 μL) containing 100 mM ATP. Thirty μL of sample was transferred to the center of a 2×2 cm^2 Whatman® P81 chromatography paper. After allowing the sample to dry for one minute, the assay squares were washed 3 times for 5 minutes each in ortho-phosphoric acid (0.5%) and once in acetone. Assay squares were dried for 15 minutes in a 30° C. oven and transferred to 96 well optiplate. Microscint-O® reagent (100 μL, Perkin Elmer) was added to each well, the plate was sealed with Topseal®-A microplates and incubated for 10 minutes at room temperature at very low speed on rocker and the plate was read in the Topcount® NXL instrument. The following calculations were made: Fold induction=radioactivity counts (uncorrected values) in positive control/substrate control.

JAK2 = JAK2 (Homo sapiens (Human), UniProt O60674); test: Inhibition of enzymatic JAK2 kinase activity (TR-FRET); assay type: biochemical; settings: read-out: IC50 JAK
Sequence of JAK2 (O60674 808-1132): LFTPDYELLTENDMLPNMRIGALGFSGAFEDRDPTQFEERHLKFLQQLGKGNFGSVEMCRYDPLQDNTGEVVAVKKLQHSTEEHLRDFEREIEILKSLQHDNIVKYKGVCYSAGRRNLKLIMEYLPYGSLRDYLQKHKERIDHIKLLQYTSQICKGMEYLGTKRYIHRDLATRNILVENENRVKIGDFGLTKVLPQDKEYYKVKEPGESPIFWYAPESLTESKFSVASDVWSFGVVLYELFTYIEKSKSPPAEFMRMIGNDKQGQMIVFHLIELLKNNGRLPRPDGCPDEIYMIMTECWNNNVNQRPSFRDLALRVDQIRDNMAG
Text: The objective of this assay was to screen compounds in a Time-resolved fluorescence resonance energy transfer (TR-FRET) Enzymatic assay method for their potential to inhibit JAK2 (Janus kinase) activity.
TR-FRET assays are homogeneous proximity assays where Eu-labeled antiphosphotyrosine antibody binds to the phosphorylated substrates labeled with Ulight fluorescence acceptor. Eu can transfer energy to Ulight accepter in the complex and the interaction of two dye-labeled binding partners is detected by the energy transfer between a donor and an acceptor dye, and the subsequent light emission by the acceptor dye. The intensity of the light emission is proportional to the level of Ulight peptide phosphorylation.
Two μL of 10% DMSO in blank, substrate control and positive control wells and 2 μL of test compound in test wells was added. Thirteen μL of assay buffer in blank and substrate control wells and 13 μL of Enzyme buffer mix in positive and test wells was added. The reaction mixture was incubated for 30 minutes at RT on a plate shaker. Ultra Light-pGT substrate (5 μL) [poly Glu-Tyr (4:1) labeled with U Light TM dye, a tyrosine kinase substrate] and ATP mix was added to all wells. The reaction plate was incubated for 60 minutes at RT on a plate shaker. The reaction was stopped by adding 40 mM EDTA (10 μL) in buffer. Ten μL of antibody was added to all the wells. The plate was read in a Wallac® 1420 Multilabel Counter Victor 3 instrument (Ex: 340 nm Em: 615 & 665 nm) The following calculations were made:
F@ 665 Value-Buffer blank
F@ 615 Value-Buffer blank
Ratio of F@665/F@615-Substrate Blank
% Activity=(Test Sample/Positive control)*100%
Inhibition=(100−% Activity)

SMILES | IC50 [1] [nM] | IC50 (JAK2) [nM]
O=C(O)CN1CCN(c2ccc(Nc3nc(N4CCCCCC4)nc4cn[nH]c(=O)c34)cn2)CC1 [Example 144, 2-(4-(5-((2-(azepan-1-yl)-5-oxo-5,6-dihydropyrimido[4,5-d]pyridazin-4-yl)amino)pyridin-2-yl)piperazin-1-yl)acetic acid] | < 100 | < 100
O=c1[nH]ncc2nc(N3CCCCCC3)nc(Nc3ccc(N4CCNCC4)nc3)c12 [Example 221, 2-(azepan-1-yl)-4-((6-(piperazin-1-yl)pyridin-3-yl)amino)pyrimido[4,5-d]pyridazin-5(6H)-one] | < 50 | < 10
O=c1[nH]ncc2nc(N3CCCCCC3)nc(Nc3ccc(CCN4CCNCC4)cc3)c12 [Example 198, 2-(azepan-1-yl)-4-((4-(2-(piperazin-1-yl)ethyl)phenyl)amino)pyrimido[4,5-d]pyridazin-5(6H)-one] | < 10 | < 10
N#CCC1CCN(c2nc(Nc3ccc(OCCN4CCNCC4)cc3)c3c(=O)[nH]ncc3n2)CC1 [Example 150, 2-(1-(5-oxo-4-((4-(2-(piperazin-1-yl)ethoxy)phenyl)amino)-5,6-dihydropyrimido[4,5-d]pyridazin-2-yl)piperidin-4-yl)acetonitrile] | < 50 | > 100
COc1cc(Nc2nc(N3CCC(CC#N)CC3)nc3cn[nH]c(=O)c23)cc(OC)c1 [Example 300, 2-(1-(4-((3,5-dimethoxyphenyl)amino)-5-oxo-5,6-dihydropyrimido[4,5-d]pyridazin-2-yl)piperidin-4-yl)acetonitrile] | > 100 | –
N#CCC1CCN(c2nc(Nc3cccc(CO)c3)c3c(=O)[nH]ncc3n2)CC1 [Example 311, 2-(1-(4-((3-(hydroxymethyl)phenyl)amino)-5-oxo-5,6-dihydropyrimido[4,5-d]pyridazin-2-yl)piperidin-4-yl) acetonitrile] | > 100 | –
CC(C)(C#N)N1CCN(c2ccc(Nc3nc(N4CCCCCC4)nc4cn[nH]c(=O)c34)cc2)CC1 [Example 111, 2-(4-(4-((2-(azepan-1-yl)-5-oxo-5,6-dihydropyrimido[4,5-d]pyridazin-4-yl)amino)phenyl)piperazin-1-yl)-2-methylpropanenitrile] | < 50 | –
COc1cc(Nc2nc(N3CCCCCC3)nc3cn[nH]c(=O)c23)cc(OC)c1OC [Example 67, 2-(azepan-1-yl)-4-((3,4,5-trimethoxyphenyl)amino)pyrimido[4,5-d]pyridazin-5(6H)-one] | > 100 | –
N#CCN1CCN(c2nc(Nc3ccc(OCCN4CCNCC4)cc3)c3c(=O)[nH]ncc3n2)CC1 [Example 230, 2-(4-(5-oxo-4-((4-(2-(piperazin-1-yl)ethoxy)phenyl)amino)-5,6-dihydropyrimido[4,5-d]pyridazin-2-yl)piperazin-1-yl)acetonitrile] | > 100 | –
O=c1[nH]ncc2nc(-c3ccccc3)nc(Nc3cnn(CCN4CCNCC4)c3)c12 [Example 63, 2-phenyl-4-((1-(2-(piperazin-1-yl)ethyl)-1H-pyrazol-4-yl)amino)pyrimido[4,5-d]pyridazin-5(6H)-one hydrochloride] | > 100 | –
COC(=O)c1ccc(-c2nc(Nc3ccc(N4CCOCC4)cc3)c3c(=O)[nH]ncc3n2)cc1 [Example 29, methyl 4-(4-(4-morpholinophenylamino)-5-oxo-5,6-dihydropyrimido[4,5-d]pyridazin-2-yl)benzoate] | > 100 | –
N#CC1CCN(c2nc(Nc3ccc(OCCN4CCNCC4)cc3)c3c(=O)[nH]ncc3n2)CC1 [Example 149, 1-(5-oxo-4-((4-(2-(piperazin-1-yl)ethoxy)phenyl)amino)-5,6-dihydropyrimido[4,5-d]pyridazin-2-yl)piperidine-4-carbonitrile] | > 100 | –
O=c1[nH]ncc2nc(-c3ccccc3)nc(Nc3cnn(CCN4CCOCC4)c3)c12 [Example 58, 4-((1-(2-morpholinoethyl)-1H-pyrazol-4-yl)amino)-2-phenylpyrimido[4,5-d]pyridazin-5(6H)-one] | > 100 | –
CN(C)CCN(C)C(=O)c1ccc(Nc2nc(-c3ccccc3)nc3cn[nH]c(=O)c23)cc1 [Example 15, N-(2-(dimethylamino)ethyl)-N-methyl-4-(5-oxo-2-phenyl-5,6-dihydropyrimido[4,5-d]pyridazin-4-ylamino)benzamide] | > 100 | –
N#CCC1CCN(c2ccc(Nc3nc(N4CCCCCC4)nc4cn[nH]c(=O)c34)cn2)CC1 [Example 97, 2-(1-(5-((2-(azepan-1-yl)-5-oxo-5,6-dihydropyrimido[4,5-d]pyridazin-4-yl)amino)pyridin-2-yl)piperidin-4-yl) acetonitrile] | > 100 | –
O=c1[nH]ncc2nc(N3CCCCCC3)nc(Nc3ccc(F)cc3)c12 [Example 313, 2-(azepan-1-yl)-4-((4-fluorophenyl)amino)pyrimido[4,5-d]pyridazin-5(6H)-one] | > 100 | –
O=c1[nH]ncc2nc(N3CCCCCC3)nc(Nc3ccc(N4CCC5(CC4)CC5CO)cc3)c12 (stereo not shown) [Example 258, 2-(azepan-1-yl)-4-((4-(1-(hydroxymethyl)-6-azaspiro[2.5]octan-6-yl)phenyl)amino) pyrimido[4,5-d]pyridazin-5(6H)-one] | < 100 | –
COc1cccc(Nc2nc(N3CCCCCC3)nc3cn[nH]c(=O)c23)c1 [Example 320, 2-(azepan-1-yl)-4-((3-methoxyphenyl)amino)pyrimido[4,5-d]pyridazin-5(6H)-one] | > 100 | –
CC(C)(Oc1ccc(Nc2nc(N3CCC(CC#N)CC3)nc3cn[nH]c(=O)c23)cc1)C(=O)O [Example 317, 2-(4-((2-(4-(cyanomethyl)piperidin-1-yl)-5-oxo-5,6-dihydropyrimido[4,5-d]pyridazin-4-yl)amino)phenoxy)-2-methylpropanoic acid] | > 100 | –
N#CCC1CCN(c2nc(Nc3ccc(OC(F)(F)F)cc3)c3c(=O)[nH]ncc3n2)CC1 [Example 301, 2-(1-(5-oxo-4-((4-(trifluoromethoxy)phenyl)amino)-5,6-dihydropyrimido[4,5-d]pyridazin-2-yl)piperidin-4-yl) acetonitrile] | > 100 | –
N#CCN1CCN(c2nc(Nc3ccc(N4CCC5(CC4)CC5C(=O)O)cc3)c3c(=O)[nH]ncc3n2)CC1 (stereo not shown) [Example 73, 6-(4-((2-(4-(cyanomethyl)piperazin-1-yl)-5-oxo-5,6-dihydropyrimido[4,5-d]pyridazin-4-yl)amino)phenyl)-6-azaspiro[2.5]octane-1-carboxylic acid] | < 100 | –
N#CCC1CCN(c2nc(Nc3ccc(CN4CCC(C(=O)O)CC4)cc3)c3c(=O)[nH]ncc3n2)CC1 [Example 78, 1-(4-((2-(4-(cyanomethyl)piperidin-1-yl)-5-oxo-5,6-dihydropyrimido[4,5-d]pyridazin-4-yl)amino)benzyl)piperidine-4-carboxylic acid] | < 100 | –
CCn1nnc(-c2ccc(Nc3nc(N4CCC(CC#N)CC4)nc4cn[nH]c(=O)c34)cc2)n1 [Example 226, 2-(1-(4-((4-(2-ethyl-2H-tetrazol-5-yl)phenyl)amino)-5-oxo-5,6-dihydropyrimido[4,5-d]pyridazin-2-yl)piperidin-4-yl)acetonitrile] | > 100 | –
COc1cccc(Nc2nc(N3CCC(CC#N)CC3)nc3cn[nH]c(=O)c23)c1 [Example 321, 2-(1-(4-((3-methoxyphenyl)amino)-5-oxo-5,6-dihydropyrimido[4,5-d]pyridazin-2-yl)piperidin-4-yl)acetonitrile] | > 100 | –

— patent US10183944B2 (Asana Biosciences, LLC, priority 2011, dated 2019)
